{
  "source": "patent US7166762B2",
  "about": "“Method of constructing heart failure model animal” (Takeda Pharmaceutical Company Limited, priority 2000, dated 2007)",
  "tested_on": "β-receptor",
  "assay": "Reactivity for dobutamine (β-receptor response, LVdp/dtmax) in anesthetized rats 1 week after the operation",
  "assay_type": "in vivo, rat",
  "conditions": "i.v.; for reactivity of the β-receptor: difference in LVdp/dtmax between before and after administration (Δ): male JCL-Wistar rat, mean ± standard error",
  "method": "A male JCL-Wistar rat (13 to 15 week-old) was anesthetized with pentobarbital (50 mg/kg, i.p.) and subjected to thoracotomy at the midline under artificial respiration. The pericardium was dissected to expose the heart, and the proximal portion of the ascending aorta was dissected. A thread was put through the proximal portion of the left coronary artery along with the cardiac muscle, with a needled suture, and the thread was ligated to occlude the coronary artery. Immediately after the occlusion of the coronary artery (within 5 minutes), a polyethylene tube having a length of 3 mm (outer diameter: 2.80 mm; inner diameter: 1.77 mm) was installed on the proximal portion of the ascending aorta to conduct stenosis of 40 to 50%. After that, close-chest operation was conducted, and the rat was returned to a breeding cage after spontaneous respiration had been confirmed, and bred for 1 week by a general procedure. The rats in which the recovery of spontaneous respiration had not been confirmed were excluded from the following analysis. After 1 week of the operation, to measure the hemodynamics, the rat was anesthetized with pentobarbital (40 mg/kg, i.p.). A tracheal cannula was inserted, then a mirror catheter having a pressure sensor (2F) was inserted from the right carotid artery to the left ventricle. The waveform of the left ventricular pressure was analyzed with a differential amplifier, and the maximum differential value (LVdp/dtmax) and the minimum differential value (LVdp/dtmin) were recorded.\nOn the other hand, in order to measure the blood pressure and to administrate a drug, a polyethylene tube was inserted to the left femoral artery and left femoral vein, respectively, and the heart rate carculated from the blood pressure pulse and the dipolar lead (II) electrocardiogram were recorded.\nDobutamime was dissolved in a solution of saline containing 0.01% of ascorbic acid, and the solution was administrated in a dose of 0.3 to 10 μg/kg i.v. to investigate the β-receptor response.\nThe basal hemodynamics after 1 week of the operation was represented by the value before the administration of dobutamime, and the reactivity of the β-receptor was represented by the difference between before and after the administration of dobutamime (Δ mmHg/sec) by the mean value±standard error.",
  "data": [
    {"smiles": "CC(CCc1ccc(O)cc1)NCCc1ccc(O)c(O)c1", "note": "(stereo not drawn) [Dobutamine]", "values": [
      {"measurement": "reactivity of the β-receptor: difference in LVdp/dtmax between before and after administration (Δ)", "setting": "0.3 μg/kg, group with coronary stenosis and stenosis of the proximal portion of the aorta", "result": "278 ± 144", "unit": "mmHg/sec"},
      {"measurement": "reactivity of the β-receptor: difference in LVdp/dtmax between before and after administration (Δ)", "setting": "0.3 μg/kg, sham-operated group", "result": "2287 ± 8", "unit": "mmHg/sec"},
      {"measurement": "reactivity of the β-receptor: difference in LVdp/dtmax between before and after administration (Δ)", "setting": "1.0 μg/kg, group with coronary stenosis and stenosis of the proximal portion of the aorta", "result": "832 ± 501", "unit": "mmHg/sec"},
      {"measurement": "reactivity of the β-receptor: difference in LVdp/dtmax between before and after administration (Δ)", "setting": "1.0 μg/kg, sham-operated group", "result": "4127 ± 112", "unit": "mmHg/sec"},
      {"measurement": "reactivity of the β-receptor: difference in LVdp/dtmax between before and after administration (Δ)", "setting": "3.0 μg/kg, group with coronary stenosis and stenosis of the proximal portion of the aorta", "result": "1641 ± 794", "unit": "mmHg/sec"},
      {"measurement": "reactivity of the β-receptor: difference in LVdp/dtmax between before and after administration (Δ)", "setting": "3.0 μg/kg, sham-operated group", "result": "7135 ± 753", "unit": "mmHg/sec"},
      {"measurement": "reactivity of the β-receptor: difference in LVdp/dtmax between before and after administration (Δ)", "setting": "10 μg/kg, group with coronary stenosis and stenosis of the proximal portion of the aorta", "result": "2431 ± 1028", "unit": "mmHg/sec"},
      {"measurement": "reactivity of the β-receptor: difference in LVdp/dtmax between before and after administration (Δ)", "setting": "10 μg/kg, sham-operated group", "result": "7654 ± 999", "unit": "mmHg/sec"},
      {"measurement": "maximum reaction of LVdp/dtmax in the stenosis group as compared with the sham-operated group", "setting": "all doses 0.3, 1.0, 3.0, 10 μg/kg, coronary + proximal aorta stenosis group vs sham-operated group", "result": "remarkably decreased"}
    ]}
  ]
}
